Reference: patent publication US9840500B2, “Compounds as dual inhibitors of histone methyltransferases and DNA methyltransferases” (FUNDACIÓN PARA LA INVESTIGACIÓN MÉDICA APLICADA, priority 2014, dated 2017)

Experiments:
UACC-62 = test: Cell proliferation assay, UACC-62 (Melanoma); assay type: cell-based; details: Homo sapiens, 48 hours
Description: (§1) Cell proliferation was analyzed after 48 hours of in vitro treatment using the CellTiter 96 Aqueous One Solution Cell Proliferation Assay (Promega, Madison, Wis.). This is a colorimetric method for determining the number of viable cells in proliferation.
(§2) For the assay, suspension cells were cultured by triplicate at a density of 1×10^6 cells/ml in 96-well plates (100.000 cells/well, 100 μl/well), except for OCILY-3 and OCILY-10 cell lines which were cultured at a density of 0.5×10^6 cells/ml (50.000 cells/well, 100 μl/well) and for HepG2, Hep3B and PLC/PRF/5 cell ines which were cultured at a density of 3000 cells/well, 100 μl/well). Adherent cells were obtained from 80-90% confluent flasks and 100 μl of cells were seeded at a density of 5000 cells/well in 96-well plates by triplicate. Before addition of the compounds, adherent cells were allowed to attach to the bottom of the wells for 12 hours. […]
(§3) After 48 hours of treatment, plates with suspension cells were centrifuged at 800 g for 10 minutes and medium was removed. […] After 1-3 hours of incubation at 37° C., absorbance was measured at 490 nm in a 96-well plate reader. The background absorbance was measured in wells with only cell line medium and solution reagent. Data was calculated as a percentage of total absorbance of treated cell/absorbance of non treated cells. […]

HCT-116 = test: Cell proliferation assay, HCT-116 (Colorectal); assay type: cell-based; details: Homo sapiens, 48 hours
Description: as §1, §2, §3

PC3 = test: Cell proliferation assay, PC3 (Prostate); assay type: cell-based; details: Homo sapiens, PC-3, 48 hours
Description: as §1, §2, §3

UM-UC-7 = test: Cell proliferation assay, UM-UC-7 (Bladder); assay type: cell-based; details: 48 hours
Description: as §1, §2, §3

HUH7 = test: Cell proliferation assay, HUH7 (Hepatocarcinoma); assay type: cell-based; details: Homo sapiens, Huh-7, 48 hours
Description: as §1, §2, §3

JJN3 = test: Cell proliferation assay, JJN3 (MM); assay type: cell-based; details: Homo sapiens, JJN-3, Table 5 comparison
Description: as §1
(§4) For the assay, suspension cells were cultured by triplicate at a density of 1×10^6 cells/ml in 96-well plates (100.000 cells/well, 100 μl/well), except for OCILY-3 and OCILY-10 cell lines which were cultured at a density of 0.5×10^6 cells/ml (50.000 cells/well, 100 μl/well) and for HepG2, Hep3B and PLC/PRF/5 cell ines which were cultured at a density of 3000 cells/well, 100 μl/well). Adherent cells were obtained from 80-90% confluent flasks and 100 μl of cells were seeded at a density of 5000 cells/well in 96-well plates by triplicate. Before addition of the compounds, adherent cells were allowed to attach to the bottom of the wells for 12 hours. In all cases, only the 60 inner wells were used to avoid any border effects.
(§5) After 48 hours of treatment, plates with suspension cells were centrifuged at 800 g for 10 minutes and medium was removed. The plates with adherent cells were flicked to remove medium. Then, cells were incubated with 100 ul/well of medium and 20 ul/well of CellTiter 96 Aqueous One Solution reagent. After 1-3 hours of incubation at 37° C., absorbance was measured at 490 nm in a 96-well plate reader. The background absorbance was measured in wells with only cell line medium and solution reagent. Data was calculated as a percentage of total absorbance of treated cell/absorbance of non treated cells.

HCC95 = test: Cell proliferation assay, HCC95 (small-cell lung cancer); assay type: cell-based; details: Homo sapiens, non-small-cell lung cancer, 48 hours
Description: as §1, §2, §3

OCI-Ly3 = test: Cell proliferation assay, OCI-Ly3 (ABC-DLBCL); assay type: cell-based; details: Homo sapiens, 48 hours of treatment, Table 3
451-LU = test: Cell proliferation assay, 451-LU (Melanoma); assay type: cell-based; details: 48 hours
Description: as §1, §2, §3

CAKI-2 = test: Cell proliferation assay, CAKI-2 (Renal); assay type: cell-based; details: Homo sapiens, 48 hours
Description: as §1, §2, §3

COLO-205 = test: Cell proliferation assay, COLO-205 (Colorectal); assay type: cell-based; details: Homo sapiens, 48 hours
Description: as §1, §2, §3

A498 = test: Cell proliferation assay, A498 (Renal); assay type: cell-based; details: Homo sapiens, 48 hours
Description: as §1, §2, §3

Hep3B = test: Cell proliferation assay, Hep3B (HCC); assay type: cell-based; details: Homo sapiens, 48 hours of treatment, Table 3
U266 = test: Cell proliferation assay, U266 (MM); assay type: cell-based; details: Homo sapiens, U-266, Table 5 comparison
Description: as §1, §4, §5

OCI-AML-2 = test: Cell proliferation assay, OCI-AML-2 (AML); assay type: cell-based; details: Homo sapiens
Description: as §1, §4, §5
(§6) Compounds 3-04 and 3-07 were tested against different solid tumour and oncohematological cell lines using the cell proliferation protocol described above.

HepG2 = test: Cell proliferation assay, HepG2 (HCC); assay type: cell-based; details: Homo sapiens, 48 hours of treatment, Table 3
RT112 = test: Cell proliferation assay, RT112 (Bladder); assay type: cell-based; details: Homo sapiens, RT-112, 48 hours
Description: as §1, §2, §3

MGH-U4 = test: Cell proliferation assay, MGH-U4 (Bladder); assay type: cell-based; details: 48 hours
Description: as §1, §2, §3

DNMT3A/3L = DNMT3A/3L (Homo sapiens, UniProt Q9Y6K1); test: DNMT3A enzyme activity assay (chemiluminescence BPS DNMT Universal Assay Kit); assay type: biochemical
Sequence of DNMT3A/3L (Q9Y6K1 whole entry, looked up): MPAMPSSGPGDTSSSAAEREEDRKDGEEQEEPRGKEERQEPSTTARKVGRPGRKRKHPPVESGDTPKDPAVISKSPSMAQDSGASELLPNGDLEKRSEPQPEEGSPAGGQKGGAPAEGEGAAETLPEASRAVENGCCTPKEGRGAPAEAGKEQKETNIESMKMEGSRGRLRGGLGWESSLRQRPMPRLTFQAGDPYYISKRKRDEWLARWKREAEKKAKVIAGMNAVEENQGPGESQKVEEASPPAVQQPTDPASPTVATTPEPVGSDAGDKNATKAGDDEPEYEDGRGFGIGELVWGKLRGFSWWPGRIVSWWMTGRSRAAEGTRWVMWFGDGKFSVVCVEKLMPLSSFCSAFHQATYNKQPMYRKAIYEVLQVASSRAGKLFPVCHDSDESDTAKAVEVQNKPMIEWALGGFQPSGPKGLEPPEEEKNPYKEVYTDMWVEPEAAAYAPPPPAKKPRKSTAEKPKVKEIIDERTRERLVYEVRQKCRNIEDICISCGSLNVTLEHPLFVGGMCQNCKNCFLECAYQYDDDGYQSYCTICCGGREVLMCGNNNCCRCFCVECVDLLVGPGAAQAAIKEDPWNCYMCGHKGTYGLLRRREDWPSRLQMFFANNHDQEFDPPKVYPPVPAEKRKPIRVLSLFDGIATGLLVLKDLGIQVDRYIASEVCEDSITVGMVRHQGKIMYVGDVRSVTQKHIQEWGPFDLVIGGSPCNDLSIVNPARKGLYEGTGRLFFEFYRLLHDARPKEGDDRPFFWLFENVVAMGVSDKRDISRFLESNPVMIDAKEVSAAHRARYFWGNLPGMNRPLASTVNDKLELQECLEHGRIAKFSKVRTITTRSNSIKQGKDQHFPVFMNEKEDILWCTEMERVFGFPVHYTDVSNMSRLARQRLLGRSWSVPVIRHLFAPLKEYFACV
Sequence of DNMT3A/3L (Q9UJW3 whole entry partner): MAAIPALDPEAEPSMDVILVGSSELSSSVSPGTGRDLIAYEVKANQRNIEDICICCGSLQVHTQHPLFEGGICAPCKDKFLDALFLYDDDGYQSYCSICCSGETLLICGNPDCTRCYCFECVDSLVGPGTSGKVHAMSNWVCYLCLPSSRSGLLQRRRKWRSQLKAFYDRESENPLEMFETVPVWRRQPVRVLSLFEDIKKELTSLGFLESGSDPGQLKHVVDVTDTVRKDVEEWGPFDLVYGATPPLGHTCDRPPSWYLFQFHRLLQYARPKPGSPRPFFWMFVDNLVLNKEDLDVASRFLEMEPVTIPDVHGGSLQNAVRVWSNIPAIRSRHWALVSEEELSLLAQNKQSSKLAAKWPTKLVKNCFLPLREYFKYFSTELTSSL
Description: DNMT3A and DNMT3B activity assays were carried out with the chemiluminiscence BPS DNMT Universal Assay Kit (BPS#52035) using a strip 96-well plate pre-coated with DNMT substrate.
The enzyme activity assay protocol is as follows: • Rehydrate the microwells by adding 150 μL of TBST buffer (1× Tris-buffered saline (TBS), pH 8.0, containing 0.05% Tween-20) to every well. Incubate 15 minutes at room temperature. • Dilute each purified DNMT [DNMT3A/3L (BPS#51106) or DNMT3B/3L (BPS#51109)] in 1×DNMT assay buffer 2 (BPS#52201) at 5-10 ng/μL. Keep diluted enzyme on ice until use. • Prepare 50 μL of reaction mixture consisting of 20 μL of DNMT (5-10 ng/μL), 12.5 μL of 4×DNMT assay buffer 2 (BPS#52201), 2.5 μL of S-adenosylmethionine 400 μM, test compound at concentrations ranging from 3 nM to 10 μM and H2O up to 50 μL. • Add the entire reaction mixture to the substrate coated wells. […]
Incubate for 30 min at room temperature with slow shaking. • Wash plate three times with TBST buffer and incubate in Blocking buffer shaking on a rotating platform for 10 min. […] Immediately read luminescence using a BioTek Synergy™2 microplate reader.
The chemiluminescence intensity data were analyzed and compared. […] Calculated IC50 values were determined using non-linear regression analysis of Sigmoidal dose-response curve generated with a four-parameters inhibition curve.

MV411 = test: Cell proliferation assay, MV411 / MV4-11 (AML); assay type: cell-based; details: Homo sapiens
Description: as §1, §4, §5, §6

LOVO = test: Cell proliferation assay, LOVO (Colorectal); assay type: cell-based; details: Homo sapiens, 48 hours
Description: as §1, §2, §3

U87-MG = test: Cell proliferation assay, U87-MG (Glioblastoma); assay type: cell-based; details: Homo sapiens, U-87 MG, 48 hours
Description: as §1, §2, §3

| Structure (SMILES) | GI50 (UACC-62) | GI50 (HCT-116) | GI50 (PC3) | GI50 (UM-UC-7) | GI50 (HUH7) | GI50 (JJN3) | GI50 (HCC95) | GI50 (OCI-Ly3) | GI50 (451-LU) | GI50 (CAKI-2) | GI50 (COLO-205) | GI50 (A498) | GI50 (Hep3B) | GI50 (U266) | GI50 (OCI-AML-2; OCI-AML2, 48 hours, Table 4) | GI50 (OCI-AML-2; OCI-AML2, Table 5 comparison) | GI50 (HepG2) | GI50 (RT112) | GI50 (MGH-U4) | IC50 (DNMT3A/3L) | further results |
| --- | --- | --- | --- | --- | --- | --- | --- | --- | --- | --- | --- | --- | --- | --- | --- | --- | --- | --- | --- | --- | --- |
| COc1cc2c(NCC3CCN(C)CC3)cc(-c3ccc(C)o3)nc2cc1OCCCN1CCCC1 [Compound 3-07] | 0.1 to 1 µM | 0.1 to 1 µM | 0.1 to 1 µM | 0.1 to 1 µM | 0.1 to 1 µM | 1 to 10 µM | 0.1 to 1 µM | 0.1 to 1 µM | ≤ 0.1 µM | 0.1 to 1 µM | 0.1 to 1 µM | 0.1 to 1 µM | 0.1 to 1 µM | 1 to 10 µM | 0.1 to 1 µM | 0.1 to 1 µM | 0.1 to 1 µM | 0.1 to 1 µM | 0.1 to 1 µM | < 0.1 µM | GI50 (MV411; MV4-11, 48 hours, Table 4): 0.1 to 1 µM; GI50 (MV411; MV4-11, Table 5 comparison): 0.1 to 1 µM; GI50 (LOVO): 0.1 to 1 µM; GI50 (U87-MG): 0.1 to 1 µM |
| COc1cc2c(NC3CCN(C)CC3)cc(-c3ccc(C)o3)nc2cc1OCCCN1CCCC1.O=C(O)C(F)(F)F [Compound 3-04, 6-methoxy-2-(5-methyl-2-furyl)-N-(1-methyl-4-piperidyl)-7-(3-pyrrolidin-1-ylpropoxy)quinolin-4-amine; 2,2,2-trifluoroacetic acid] | 0.1 to 1 µM | 0.1 to 1 µM | 0.1 to 1 µM | 0.1 to 1 µM | ≤ 0.1 µM | 1 to 10 µM | 0.1 to 1 µM | 0.1 to 1 µM | 0.1 to 1 µM | 1 to 10 µM | 0.1 to 1 µM | > 10 µM | 0.1 to 1 µM | 1 to 10 µM | 0.1 to 1 µM | 0.1 to 1 µM | 0.1 to 1 µM | 0.1 to 1 µM | 0.1 to 1 µM | < 0.1 µM | GI50 (MV411; MV4-11, 48 hours, Table 4): 0.1 to 1 µM; GI50 (MV411; MV4-11, Table 5 comparison): 0.1 to 1 µM; GI50 (LOVO): 1 to 10 µM; GI50 (U87-MG): 0.1 to 1 µM |
